Reference: the supplement of paper PMC10307832

What was measured:
Experiment in all cases: relative viability (nuclei count vs DMSO), 5 days (fraction); higher = more cells survive
[1] = compound: CC1=C(C(=NN1)C)CC2=C(C3=C(S2)N(C(=O)N(C3=O)C)CC(C)C)C(=O)N4C[C@@H](CO4)O + CC(=O)Nc1cccc(-n2c(=O)n(C3CC3)c(=O)c3c(Nc4ccc(I)cc4F)n(C)c(=O)c(C)c32)c1 [Trametinib] (partner 0.02 µM)
How it was run: (§1)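 Values are medians from duplicate plates. Each reflects relative viability, defined as the nuclei count of treated wells over that of vehicle wells. Lung cancer cell lines in 1536-well plates were pin-tool dosed one day after seeding with one drug alone or with a fixed anchor-drug dose plus five library-drug doses (not always all listed) in √10 steps, then fixed, stained and imaged at 4× after 5 days.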

[2] = compound: CC1=C(C(=NN1)C)CC2=C(C3=C(S2)N(C(=O)N(C3=O)C)CC(C)C)C(=O)N4C[C@@H](CO4)O + C[C@@H](Oc1cc(-c2cnn(C3CCNCC3)c2)cnc1N)c1c(Cl)ccc(F)c1Cl [Crizotinib] (partner 1 µM)
How it was run: as §1

[3] = compound: Cc1ccccc1C(C(=O)NC1CCCCC1)N(C(=O)Cn1ccnc1C)c1cccc(F)c1 [IDH-C35] + CC(C)C[C@H](NC(=O)[C@H](Cc1ccccc1)NC(=O)c1cnccn1)B(O)O [Bortezomib] (partner 0.002 µM)
How it was run: as §1

[4] = compound: Cc1ccccc1C(C(=O)NC1CCCCC1)N(C(=O)Cn1ccnc1C)c1cccc(F)c1 [IDH-C35] + Nc1nc2[nH]cc(CCc3ccc(C(=O)N[C@@H](CCC(=O)O)C(=O)O)cc3)c2c(=O)[nH]1 [Pemetrexed] (partner 0.2 µM)
How it was run: as §1

UMC-11
relative viability ([1]; first compound 0.0025 µM): 0.842
relative viability ([1]; first compound 0.007906 µM): 0.84
relative viability ([1]; first compound 0.025 µM): 0.83
relative viability ([1]; first compound 0.07906 µM): 0.677
relative viability ([1]; first compound 0.25 µM): 0.993
relative viability ([2]; first compound 0.0025 µM): 0.647
relative viability ([2]; first compound 0.007906 µM): 0.346
relative viability ([2]; first compound 0.025 µM): 0.441
relative viability ([2]; first compound 0.07906 µM): 0.628
relative viability ([2]; first compound 0.25 µM): 0.657
relative viability ([3]; first compound 0.08 µM): 0.736
relative viability ([3]; first compound 0.253 µM): 0.737
relative viability ([3]; first compound 0.8 µM): 0.487
relative viability ([3]; first compound 2.53 µM): 0.65
relative viability ([3]; first compound 8 µM): 0.636
relative viability ([4]; first compound 0.08 µM): 0.811
relative viability ([4]; first compound 0.253 µM): 0.915
relative viability ([4]; first compound 0.8 µM): 0.804
relative viability ([4]; first compound 2.53 µM): 0.853
relative viability ([4]; first compound 8 µM): 0.88
